This passage reports IC50 and MTAP intact/deleted ratio results from patent US11999727B2 (Tango Therapeutics, Inc., priority 2020, dated 2024).

Assay [1] has as its system HAP1 MTAP-deleted cell line. In words: SDMA in-cell western assay, HAP1 MTAP-deleted. The following applies: for IC50: Homo sapiens, HAP1, SDMA in-cell western, HAP1 MTAP-deleted, read-out: HAP1 MTAP deleted IC50; for MTAP intact/deleted ratio: IC50 ratio HAP1 MTAP-intact / HAP1 MTAP-deleted, SDMA in-cell western. It counts as cell-based. Summed up: (§1)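 Isogenic HAP1 pair: the MTAP-intact line expresses endogenous MTAP, and the deleted line is MTAP-null. Symmetric dimethylarginine was detected by in-cell western and IC50 values derived for each line.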

Assay [2] concerns HAP1 MTAP-deleted cell line. Description: Viability assay, MTAP-deleted cell line. The following applies: Homo sapiens, HAP1, viability assay, MTAP-deleted cell line; read-out: HAP1 MTAP deleted viability. The class given is cell-based. The source says:
Table 1 additionally indicates IC50 values in a viability assay for the MTAP-deleted cell line (column 10), indicating the effect of treatment with compound on cell survival.

Assay [3] deals with T1, PRMT5 (Homo sapiens, UniProt O14744).
T1 construct: purchased Viva (custom protein)
T1 sequence (O14744 whole entry): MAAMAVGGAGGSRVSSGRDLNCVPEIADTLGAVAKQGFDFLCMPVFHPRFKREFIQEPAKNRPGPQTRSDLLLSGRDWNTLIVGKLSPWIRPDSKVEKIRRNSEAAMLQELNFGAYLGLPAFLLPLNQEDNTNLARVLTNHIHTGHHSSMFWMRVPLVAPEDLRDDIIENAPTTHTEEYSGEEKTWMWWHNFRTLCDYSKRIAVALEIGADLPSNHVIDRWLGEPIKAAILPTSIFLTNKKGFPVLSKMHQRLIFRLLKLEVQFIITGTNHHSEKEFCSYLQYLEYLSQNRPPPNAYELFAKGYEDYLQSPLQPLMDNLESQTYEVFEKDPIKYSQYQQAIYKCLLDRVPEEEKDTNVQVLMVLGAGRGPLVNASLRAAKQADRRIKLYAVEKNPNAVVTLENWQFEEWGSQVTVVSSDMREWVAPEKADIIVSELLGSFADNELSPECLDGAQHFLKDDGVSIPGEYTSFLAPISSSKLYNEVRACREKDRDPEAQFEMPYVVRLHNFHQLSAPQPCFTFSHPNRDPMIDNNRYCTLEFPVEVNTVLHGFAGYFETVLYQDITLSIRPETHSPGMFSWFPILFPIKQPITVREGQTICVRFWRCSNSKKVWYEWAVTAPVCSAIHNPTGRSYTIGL
T1 sequence (Q9BQA1 whole entry partner): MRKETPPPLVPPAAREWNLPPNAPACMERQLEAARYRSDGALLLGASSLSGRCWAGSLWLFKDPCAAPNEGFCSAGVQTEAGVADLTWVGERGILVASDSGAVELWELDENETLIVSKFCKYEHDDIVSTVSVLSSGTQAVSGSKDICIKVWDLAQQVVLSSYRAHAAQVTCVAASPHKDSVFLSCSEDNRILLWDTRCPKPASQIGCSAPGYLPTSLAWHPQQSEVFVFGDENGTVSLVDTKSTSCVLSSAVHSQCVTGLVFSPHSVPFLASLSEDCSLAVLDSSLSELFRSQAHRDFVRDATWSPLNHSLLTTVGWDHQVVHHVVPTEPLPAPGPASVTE
Description: PRMT5 biochemical IC50 assay with MTA as cofactor. The following applies: PRMT5, MTA as cofactor; read-out: MTA IC50.

Assay [4] concerns HAP1 MTAP-intact cell line. Description: SDMA in-cell western assay, HAP1 MTAP-intact. The class given is cell-based. The following applies: Homo sapiens, HAP1, SDMA in-cell western, HAP1 MTAP-intact; read-out: MTAP HAP1 intact IC50. The essentials: as §1
The target of assay [5] is T1, PRMT5. In words: PRMT5 biochemical IC50 assay with SAM as cofactor. The following applies: PRMT5, SAM as cofactor; read-out: SAM IC50.
Assay [6] has as its target T1, PRMT5. Description: PRMT5 biochemical IC50 assay with no cofactor. The following applies: PRMT5, no cofactor; read-out: No Cofactor/rel IC50. An excerpt:
Table 1 indicates IC50 values (μM) against PRMT5 for exemplary compounds in the presence of SAM as cofactor, with no cofactor, and with MTA as cofactor, respectively (columns 4-6). […] Ki values can be calculated from the IC50 values as described in the Examples section. As detailed in the Examples section, for the assay performed in the presence of SAM, IC50=Ki×1.5 (Ki=IC50/1.5).

Regarding `C[C@@H]1CC[C@@H](c2ccc3sccc3c2)N(C(=O)C(=O)Nc2cncc(C(N)=O)c2)C1` (racemic) [Compound 409, rac-5-[[2-[(2S,5R)-2-(benzothiophen-5-yl)-5-methyl-1-piperidyl]-2-oxo-acetyl]amino]pyridine-3-carboxamide], the IC50 in assay [1] is less than 0.1 µM; in assay [2], 1 to 10 µM; in assay [3], less than 0.05 µM; in assay [4], greater than 1 µM; in assay [5] it was 0.05 to 0.5 µM; in assay [6] it was 0.05 to 0.5 µM. Besides, the MTAP intact/deleted ratio result in assay [1] was “A (an IC50 ratio greater than or equal to 10 fold)”.
Turning to `C[C@@H]1CC[C@H](c2ccc(NCC(=O)N(C)C)cc2)N(C(=O)C(=O)Nc2cncc(C(N)=O)c2)C1` (racemic) [Compound 422, 5-[[2-[(2R,5R)-2-[4-[[2-(Dimethylamino)-2-oxo-ethyl]amino]phenyl]-5-methyl-1-piperidyl]-2-oxo-acetyl]amino]pyridine-3-carboxamide], the IC50 was 0.1 to 1 µM in assay [1]; greater than 10 µM in assay [2]; 0.05 to 0.5 µM in assay [3]; greater than 1 µM in assay [4]; 0.05 to 0.5 µM in assay [5]; greater than 0.5 µM in assay [6]. For the same compound, in assay [1], the MTAP intact/deleted ratio result was “A (an IC50 ratio greater than or equal to 10 fold)”.
In the case of `C[C@@H]1CC[C@H](c2ccc(N[C@@H]3CCN(C)C3=O)cc2)N(C(=O)C(=O)Nc2cncc(C(N)=O)c2)C1` (racemic) [Compound 427, 5-[[2-[(2R,5R)-5-Methyl-2-[4-[[(3R)-1-methyl-2-oxo-pyrrolidin-3-yl]amino]phenyl]-1-piperidyl]-2-oxo-acetyl]amino]pyridine-3-carboxamide], the IC50 in assay [1] is 0.1 to 1 µM; in assay [2], greater than 10 µM; in assay [3], 0.05 to 0.5 µM; in assay [4] it was greater than 1 µM; in assay [5], 0.05 to 0.5 µM; in assay [6] it was 0.05 to 0.5 µM. In addition, the MTAP intact/deleted ratio entry in assay [1] was “A (an IC50 ratio greater than or equal to 10 fold)”.
Take `COc1cc(OC)cc([C@@H]2CC[C@@H](C)CN2C(=O)C(=O)Nc2cncc(C(N)=O)c2)c1` (racemic) [Compound 428, rac-5-{2-[(2R,5S)-2-(3,5-Dimethoxyphenyl)-5-methylpiperidin-1-yl]-2-oxoacetamido}pyridine-3-carboxamide]: the IC50 in assay [1] was 0.1 to 1 µM; in assay [2], greater than 10 µM; in assay [3] it was 0.05 to 0.5 µM; in assay [4], greater than 1 µM; in assay [5] it was greater than 0.5 µM; in assay [6], greater than 0.5 µM. In addition, in assay [1], the MTAP intact/deleted ratio entry is “A (an IC50 ratio greater than or equal to 10 fold)”.
For the compound `NC(=O)c1cncc(NC(=O)C(=O)N2CC[C@@H]3CCCC[C@@H]3C2)c1` (racemic) [Compound 429, 5-(2-(octahydroisoquinolin-2(1B)-yl)-2-oxoacetamido)nicotinamide], the IC50 is greater than 1 µM in assay [1]; greater than 10 µM in assay [2]; 0.05 to 0.5 µM in assay [3]; greater than 1 µM in assay [4]; 0.05 to 0.5 µM in assay [5]; greater than 0.5 µM in assay [6]. Moreover, in assay [1], the MTAP intact/deleted ratio result is reported as “B (an IC50 ratio greater than or equal to 3 fold but lower than 10 fold)”.
Regarding `C[C@@H]1CC[C@@H](c2ccc(N[C@@H]3CCN(C)C3=O)cc2)N(C(=O)C(=O)Nc2cncc(C(N)=O)c2)C1` (racemic) [Compound 430, 5-[[2-[(2S,5R)-5-Methyl-2-[4-[[(3R)-1-methyl-2-oxo-pyrrolidin-3-yl]amino]phenyl]-1-piperidyl]-2-oxo-acetyl]amino]pyridine-3-carboxamide], the IC50 in assay [1] is less than 0.1 µM; in assay [2], 1 to 10 µM; in assay [3], 0.05 to 0.5 µM; in assay [4], greater than 1 µM; in assay [5] it was 0.05 to 0.5 µM; in assay [6] it was 0.05 to 0.5 µM. Besides, in assay [1], the MTAP intact/deleted ratio entry is on record as “A (an IC50 ratio greater than or equal to 10 fold)”.
Take `C[C@@H]1CCN(C(=O)C(=O)Nc2cncc(C(N)=O)c2)[C@H](c2ccccc2)C1` (racemic) [Compound 442, 5-(2-(4-methyl-2-phenylpiperidin-1-yl)-2-oxoacetamido)nicotinamide]: the IC50 in assay [1] is 0.1 to 1 µM; in assay [2], 1 to 10 µM; in assay [3], 0.05 to 0.5 µM; in assay [4] it was greater than 1 µM; in assay [5] it was 0.05 to 0.5 µM; in assay [6], 0.05 to 0.5 µM. Moreover, the MTAP intact/deleted ratio result in assay [1] was “A (an IC50 ratio greater than or equal to 10 fold)”.
`C[C@@H]1CN(C(=O)C(=O)Nc2cncc(C(N)=O)c2)[C@@H](c2ccccc2)C[C@H]1O` (racemic) [Compound 459, rac-5-[[2-[(2R,4R,5R)-4-hydroxy-5-methyl-2-phenyl-1-piperidyl]-2-oxo-acetyl]amino]pyridine-3-carboxamide]: the IC50 in assay [1] is 0.1 to 1 µM; in assay [2] it was greater than 10 µM; in assay [3] it was 0.05 to 0.5 µM; in assay [4] it was greater than 1 µM; in assay [5] it was 0.05 to 0.5 µM; in assay [6], 0.05 to 0.5 µM. In assay [1], the MTAP intact/deleted ratio entry is “A (an IC50 ratio greater than or equal to 10 fold)”.
For `C[C@@H]1CN(C(=O)C(=O)Nc2cncc(C(N)=O)c2)[C@@H](c2ccccc2)C[C@@H]1O` (racemic) [Compound 470, rac-5-[[2-[(2R,4S,5R)-4-hydroxy-5-methyl-2-phenyl-1-piperidyl]-2-oxo-acetyl]amino]pyridine-3-carboxamide], the IC50 in assay [1] is 0.1 to 1 µM; in assay [2], greater than 10 µM; in assay [3], 0.05 to 0.5 µM; in assay [4], greater than 1 µM; in assay [5] it was 0.05 to 0.5 µM; in assay [6] it was 0.05 to 0.5 µM. For the same compound, the MTAP intact/deleted ratio result in assay [1] is “A (an IC50 ratio greater than or equal to 10 fold)”.
As for `C[C@@H]1CC[C@@H](c2ccccc2)N(C(=O)C(=O)Nc2cnc(O)c(C(N)=O)c2)C1` (racemic) [Compound 494, rac-2-hydroxy-5-(2-((2R,5S)-5-methyl-2-phenylpiperidin-1-yl)-2-oxoacetamido)nicotinamide], the IC50 was greater than 1 µM in assay [1]; greater than 10 µM in assay [2]; 0.05 to 0.5 µM in assay [3]; greater than 1 µM in assay [4]; greater than 0.5 µM in assay [5]; 0.05 to 0.5 µM in assay [6]. Moreover, the MTAP intact/deleted ratio result in assay [1] is “C (an IC50 ratio of less than 3 fold)”.
On to `CC[C@@H]1CCN(C(=O)C(=O)Nc2cncc(C(N)=O)c2)[C@H](c2ccccc2)C1` (racemic) [Compound 497, rac-5-[[2-[(2S,4R)-4-ethyl-2-phenyl-1-piperidyl]-2-oxo-acetyl]amino]pyridine-3-carboxamide], for which the IC50 is 0.1 to 1 µM in assay [1]; 1 to 10 µM in assay [2]; less than 0.05 µM in assay [3]; greater than 1 µM in assay [4]; 0.05 to 0.5 µM in assay [5]; 0.05 to 0.5 µM in assay [6]. Besides, the MTAP intact/deleted ratio entry in assay [1] is “A (an IC50 ratio greater than or equal to 10 fold)”.
Turning to `CNc1ccc([C@@H]2CC[C@@H](C)CN2C(=O)C(=O)Nc2cnc(N)c(C)c2)cc1` (racemic) [Compound 498, N-(6-amino-5-methyl-3-pyridyl)-2-[(2S,5R)-5-methyl-2-[4-(methylamino)phenyl]-1-piperidyl]-2-oxo-acetamide], the IC50 was less than 0.1 µM in assay [1]; less than 1 µM in assay [2]; 0.05 to 0.5 µM in assay [3]; greater than 1 µM in assay [4]; 0.05 to 0.5 µM in assay [5]; 0.05 to 0.5 µM in assay [6]. For the same compound, in assay [1], the MTAP intact/deleted ratio result is “A (an IC50 ratio greater than or equal to 10 fold)”.
In the case of `Cc1n[nH]c2ccc([C@@H]3CC[C@@H](C)CN3C(=O)C(=O)Nc3cncc(C(N)=O)c3)cc12` (racemic) [Compound 500, rac-5-[[2-[(2S,5R)-5-Methyl-2-(3-methyl-1H-indazol-5-yl)-1-piperidyl]-2-oxo-acetyl]amino]pyridine-3-carboxamide], the IC50 in assay [1] was 0.1 to 1 µM; in assay [2], 1 to 10 µM; in assay [3] it was 0.05 to 0.5 µM; in assay [4], greater than 1 µM; in assay [5] it was 0.05 to 0.5 µM; in assay [6] it was 0.05 to 0.5 µM. Further, the MTAP intact/deleted ratio result in assay [1] is listed as “A (an IC50 ratio greater than or equal to 10 fold)”.
As for `COc1ncc(NC(=O)C(=O)N2C[C@@H](C)CC[C@@H]2c2csc3ccccc23)cc1C(N)=O` (racemic) [Compound 501, 5-[[2-[2-(benzothiophen-3-yl)-5-methyl-1-piperidyl]-2-oxo-acetyl]amino]-2-methoxy-pyridine-3-carboxamide], the IC50 is greater than 1 µM in assay [1]; greater than 10 µM in assay [2]; 0.05 to 0.5 µM in assay [3]; greater than 1 µM in assay [4]; greater than 0.5 µM in assay [5]; greater than 0.5 µM in assay [6]. For the same compound, in assay [1], the MTAP intact/deleted ratio result is given as “B (an IC50 ratio greater than or equal to 3 fold but lower than 10 fold)”.
